From the NIST ThermoML archive (doi:10.1021/je700398k)

Conditions: Liquid

CN1CCCCCC1=O [1-methylazacycloheptan-2-one]
Conditions	vapor or sublimation pressure [kPa]
402.95 K	4.019
405.13 K	4.39
411.63 K	5.651
415.53 K	6.531
420.7 K	7.906
424.29 K	8.986
428.38 K	10.38
430.35 K	11.12
434.66 K	12.84
436.35 K	13.6
443.09 K	16.89
450.68 K	21.39
458.3 K	26.82
462.79 K	30.5
468.95 K	36.27
479.21 K	47.69
510.6 K	101.4

CN1CCCC1=O [N-methylpyrrolidone]
Conditions	vapor or sublimation pressure [kPa]
380.73 K	4.742
383.12 K	5.24
386.38 K	5.98
387.92 K	6.361
389.88 K	6.862
393.04 K	7.775
400.46 K	10.29
403.85 K	11.62
406.68 K	12.87
408.96 K	13.96
411.42 K	15.22
413.77 K	16.5
416.81 K	18.28
420.94 K	20.97
424.65 K	23.65
427.56 K	25.96
432.29 K	30.08
435.85 K	33.54
439.12 K	36.99
441.74 K	39.96
444.04 K	42.73
446.64 K	46.02
451.08 K	52.18
457.46 K	62.11
475.72 K	99.4

ClCC1CO1 (stereo unspecified) [1-chloro-2,3-epoxypropane]
Conditions	vapor or sublimation pressure [kPa]
315.67 K	5.916
316.53 K	6.183
318.81 K	6.915
321.9 K	8.015
324.03 K	8.859
327.03 K	10.18
330.21 K	11.74
334.22 K	14.01
334.77 K	14.32
337.79 K	16.3
339.71 K	17.66
343.98 K	21.05
345.99 K	22.82
347.15 K	23.9
350.87 K	27.61
352.3 K	29.16
354.46 K	31.66
357.56 K	35.49
359.92 K	38.7
363.28 K	43.68
367.42 K	50.42
371.36 K	57.63
375.06 K	65.2
388.29 K	98.82
